# Key:
# Type in all cases: in vivo, human
# [1] = tested on: patients treated for traumatic inflammatory conditions; assay: Pain relief following intra-articular or peri-articular injection, Example 1; conditions: for Outcome: Improved (%) / Outcome: Improved n / Outcome: No change (%) / Outcome: No change n / Outcome: Not reported (%) / Outcome: Not reported n / Outcome: Temporarily improved (%) / Outcome: Temporarily improved n / Outcome: Worsened (%) / Outcome: Worsened n: 1 g dexpanthenol + 1 ml 0.1% bupivacaine intra- or peri-articular
# Protocol: 62 patients ([…]) aged 21 to 85 years were treated for traumatic inflammatory conditions. The patients were administered one or more intra-articular or peri-articular injections, i.e., into the inflamed joint or nearby area, of dexpanthenol in combination with a long acting local anesthetic [4 ml of an aqueous solution of dexpanthenol Ph Eur (equal to 1 g of dexpanthenol); 1 ml of 0.1% bupivacaine]. In terms of pain relief following injection, efficacy outcome of the treatment is shown in the table below: Injection of facet joints has previously almost invariably been done using MRI to ensure exact placing of the needle. […] By palpating the patient's back in the area of pain and spasm, there is often an area of extreme tenderness about 5 cms from the midline, indicating the site of the inflamed facet joints. If a needle is inserted at right angles into this area, it will be located in or exceedingly close to the facet joint.
# [2] = tested on: patients treated for traumatic inflammatory conditions; assay: Safety and tolerability from case notes of the 62 patients, Example 1
# Protocol: 62 patients ([…]) aged 21 to 85 years were treated for traumatic inflammatory conditions. The patients were administered one or more intra-articular or peri-articular injections, i.e., into the inflamed joint or nearby area, of dexpanthenol in combination with a long acting local anesthetic [4 ml of an aqueous solution of dexpanthenol Ph Eur (equal to 1 g of dexpanthenol); 1 ml of 0.1% bupivacaine].
# Five (8%) of the 62 patients reported adverse events, including numbness and injection site pain, which resolved with time.
# inflamed joint = assay: Patient response to a program of injections into or outside the inflamed joint (description)
# Protocol: In some embodiments, a typical dose is an aqueous solution (about 2 milliliters) containing about 500 mg of panthenol (e.g., dexpanthenol) or an aqueous solution (about 4 milliliters) containing about 1000 mg of panthenol (e.g., dexpanthenol). Lower doses can also be used (e.g., 250 mg of panthenol). The aqueous solution can be injected directly into the site of the inflamed joint or outside of the joint as described herein. A program of injections is generally desirable in which dosages similar to that indicated above are given at intervals of a few days (e.g., 2, 3, 4, 5, or 6 days) to about one week. Reduced inflammation and increased freedom of movement is typically noticeable within 48 hours from the initial injection. Using the 1000 mg dose, patients have reported an estimated 80% reduction of pain after the first injection. In certain embodiments, for larger doses (e.g., ≧1000 milligrams), the active ingredient can be provided in two or more closely spaced (e.g., from about 5 minutes to about 1 hour) and smaller doses (e.g., each independently about 400, about 500, or about 600 milligrams).
# [3] = Total of all sites of complaint, n 98
# [4] = site of complaint Back (post-traumatic spondylitis), n 54
# [5] = where outcome reported, cohort of 62 patients, with bupivacaine
# [6] = of the 62 patients, numbness and injection site pain, resolved with time, with bupivacaine
smiles,measurement,setting,value
CC(C)(CO)[C@@H](O)C(=O)NCCCO [dexpanthenol],Outcome: Improved (%),[1]; [3],50.0%
same,Outcome: Improved n,[1]; [3],49 n
same,Outcome: No change (%),[1]; [3],10.2%
same,Outcome: No change n,[1]; [3],10 n
same,Outcome: Not reported (%),[1]; [3],20.4%
same,Outcome: Not reported n,[1]; [3],20 n
same,Outcome: Temporarily improved (%),[1]; [3],13.2%
same,Outcome: Temporarily improved n,[1]; [3],13 n
same,Outcome: Worsened (%),[1]; [3],6.1%
same,Outcome: Worsened n,[1]; [3],6 n
same,effectiveness of injection adjacent to the facet joint versus directly into the joint,"[1]; facet joints, injection without MRI",equally effective
same,Outcome: Improved (%),[1]; [4],55.6%
same,Outcome: Improved n,[1]; [4],30 n
same,Outcome: No change (%),[1]; [4],11.1%
same,Outcome: No change n,[1]; [4],6 n
same,Outcome: Not reported (%),[1]; [4],16.7%
same,Outcome: Not reported n,[1]; [4],9 n
same,Outcome: Temporarily improved (%),[1]; [4],11.1%
same,Outcome: Temporarily improved n,[1]; [4],6 n
same,Outcome: Worsened (%),[1]; [4],5.6%
same,Outcome: Worsened n,[1]; [4],3 n
same,Outcome: Improved (%),"[1]; site of complaint Hip, n 22",40.9%
same,Outcome: Improved n,"[1]; site of complaint Hip, n 22",9 n
same,Outcome: No change (%),"[1]; site of complaint Hip, n 22",9.1%
same,Outcome: No change n,"[1]; site of complaint Hip, n 22",2 n
same,Outcome: Not reported (%),"[1]; site of complaint Hip, n 22",22.7%
same,Outcome: Not reported n,"[1]; site of complaint Hip, n 22",5 n
same,Outcome: Temporarily improved (%),"[1]; site of complaint Hip, n 22",18.2%
same,Outcome: Temporarily improved n,"[1]; site of complaint Hip, n 22",4 n
same,Outcome: Worsened (%),"[1]; site of complaint Hip, n 22",9.1%
same,Outcome: Worsened n,"[1]; site of complaint Hip, n 22",2 n
same,Outcome: Improved (%),"[1]; site of complaint Knee, n 8",62.5%
same,Outcome: Improved n,"[1]; site of complaint Knee, n 8",5 n
same,Outcome: No change (%),"[1]; site of complaint Knee, n 8",12.5%
same,Outcome: No change n,"[1]; site of complaint Knee, n 8",1 n
same,Outcome: Not reported (%),"[1]; site of complaint Knee, n 8",25.0%
same,Outcome: Not reported n,"[1]; site of complaint Knee, n 8",2 n
same,Outcome: Temporarily improved (%),"[1]; site of complaint Knee, n 8",0 (0) %
same,Outcome: Temporarily improved n,"[1]; site of complaint Knee, n 8",0 (0) n
same,Outcome: Worsened (%),"[1]; site of complaint Knee, n 8",0 (0) %
same,Outcome: Worsened n,"[1]; site of complaint Knee, n 8",0 (0) n
same,Outcome: Improved (%),"[1]; site of complaint Other, n 14",35.7%
same,Outcome: Improved n,"[1]; site of complaint Other, n 14",5 n
same,Outcome: No change (%),"[1]; site of complaint Other, n 14",7.1%
same,Outcome: No change n,"[1]; site of complaint Other, n 14",1 n
same,Outcome: Not reported (%),"[1]; site of complaint Other, n 14",28.6%
same,Outcome: Not reported n,"[1]; site of complaint Other, n 14",4 n
same,Outcome: Temporarily improved (%),"[1]; site of complaint Other, n 14",21.4%
same,Outcome: Temporarily improved n,"[1]; site of complaint Other, n 14",3 n
same,Outcome: Worsened (%),"[1]; site of complaint Other, n 14",7.1%
same,Outcome: Worsened n,"[1]; site of complaint Other, n 14",1 n
same,patients who said that their condition had worsened,[1]; [5],less than 10%
same,share of all patients who benefited from pain relief,[1]; [5],about three-quarters
same,safety and tolerability,"[2]; injections into the joint or nearby area, in combination with bupivacaine, 62 patients",generally safe and well tolerated
same,patients who reported adverse events (%),[2]; [6],8%
same,patients who reported adverse events (number),[2]; [6],Five
CC(C)(CO)[C@@H](O)C(=O)NCCCO [panthenol],reduction of pain reported by patients,"inflamed joint; 1000 mg dose, after the first injection, estimated",~80%
same,time until reduced inflammation and increased freedom of movement is noticeable,"inflamed joint; from the initial injection, typical doses 500 mg or 1000 mg in aqueous solution",≤ 48 h

# Reference: patent publication US8906966B2, “Medicaments containing panthenol” (priority 2006, dated 2014)
